Reference: ChEMBL document CHEMBL5725862, “PRMT5 inhibitors and uses thereof” (2018)

Experiment: PRMT5 Biochemical Assay: The assays were all performed in a buffer consisting of 20 mM Bicine (pH=7.6), 1 mM TCEP, 0.005% BSG, and 0.002% Tween20, prepared on the day of use. Compounds in 100% DMSO (1 ul) were spotted into a polypropylene 384-well V-bottom plates (Greiner) using a Platemate Plus outfitted with a 384-channel head (Thermo Scientific). DMSO (1 ul) was added to Columns 11, 12, 23, 24, rows A-H for the maximum signal control and 1 ul of SAH, a known product and inhibitor of PRMT5/MEP50, was added to columns 11, 12, 23, 24, rows I-P for the minimum signal control. A cocktail (40 ul) containing the PRMT5/MEP50 enzyme and the peptide was added by Multidrop Combi (Thermo-Fisher). The compounds were allowed to incubate with PRMT5/MEP50 for 30 min at 25 degrees Celsius, then a cocktail (10 ul) containing 3H-SAM was added to initiate the reaction (final volume=51 ul). The final concentrations of the components were as follows: PRMT5/MEP50 was 4 nM, 3H-SAM was 75 nM, peptide was 40 nM, SAH in the minimum signal control wells was 100 uM, and the DMSO concentration was 1%. The assays were stopped by the addition of non-radioactive SAM (10 ul) to a final concentration of 600 uM, which dilutes the 3H-SAM to a level where its incorporation into the peptide substrate is no longer detectable. […]

For `C[C@H](Oc1cccc2cccnc12)C(=O)NC[C@@H](O)CN1Cc2ccccc2C1`, the IC50 was “in the range around 550 nM”.
